Laboratory results as given in patent publication US7786141B2 (Vertex Pharmaceuticals Incorporated, priority 2004, dated 2010).
Read-outs that look alike come from different tables or passages of the source.

What was measured:
M4 muscarinic receptor = biological target: T1, M4 muscarinic receptor (Homo sapiens, UniProt P08173); assay: Functional mobilization of intracellular calcium (FLIPR) in M4-CHO cells; assay type: cell-based
T1 construct: expressed in transfected cells; host or cells: CHO (M4-CHO)
T1 sequence (P08173 1-479): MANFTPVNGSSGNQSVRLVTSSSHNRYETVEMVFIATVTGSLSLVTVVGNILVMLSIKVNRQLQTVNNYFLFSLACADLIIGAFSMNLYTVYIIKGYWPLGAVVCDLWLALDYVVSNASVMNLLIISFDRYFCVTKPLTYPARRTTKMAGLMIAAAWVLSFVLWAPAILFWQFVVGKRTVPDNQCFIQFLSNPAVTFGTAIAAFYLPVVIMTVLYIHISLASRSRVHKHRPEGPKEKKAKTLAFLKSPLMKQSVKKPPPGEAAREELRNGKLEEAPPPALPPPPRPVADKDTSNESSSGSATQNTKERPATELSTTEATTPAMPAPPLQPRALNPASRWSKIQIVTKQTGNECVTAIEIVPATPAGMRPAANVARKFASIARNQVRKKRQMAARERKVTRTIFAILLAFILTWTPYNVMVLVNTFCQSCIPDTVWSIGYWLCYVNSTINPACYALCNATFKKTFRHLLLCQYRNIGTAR
Summary of the method: (§1)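 Intracellular calcium rise is measured by FLIPR fluorescence over 60 sec in CHO cells carrying human M1 or M4 receptors. Compounds are tested alone as agonists, or pre-incubated 15 min (or co-applied) ahead of carbachol at its EC80 to detect inhibition.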

M1 muscarinic receptor = biological target: T2, M1 muscarinic receptor (Homo sapiens, UniProt P11229); assay: Functional mobilization of intracellular calcium (FLIPR) in M1-CHO cells; assay type: cell-based
T2 construct: expressed in transfected cells; host or cells: CHO (M1-CHO)
T2 sequence (P11229 1-460): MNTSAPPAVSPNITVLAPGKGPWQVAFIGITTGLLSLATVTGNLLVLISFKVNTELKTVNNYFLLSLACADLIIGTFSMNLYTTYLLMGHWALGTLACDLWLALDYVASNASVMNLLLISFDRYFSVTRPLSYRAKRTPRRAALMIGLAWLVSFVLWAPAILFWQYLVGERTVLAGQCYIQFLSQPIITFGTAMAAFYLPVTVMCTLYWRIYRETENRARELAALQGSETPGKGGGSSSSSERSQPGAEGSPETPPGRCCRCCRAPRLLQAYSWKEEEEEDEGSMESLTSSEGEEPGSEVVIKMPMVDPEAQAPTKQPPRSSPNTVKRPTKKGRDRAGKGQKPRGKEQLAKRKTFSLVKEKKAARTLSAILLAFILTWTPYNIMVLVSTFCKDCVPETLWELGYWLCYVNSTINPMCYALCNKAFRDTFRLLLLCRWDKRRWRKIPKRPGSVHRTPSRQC
Summary of the method: as §1

[1] = Table 4, 100% efficacy is the maximum response obtained with the Carbachol control
[2] = Table 4, M4 receptor, calcium mobilization (FLIPR)
[3] = Table 4, M1 receptor, calcium mobilization (FLIPR)
[4] = M4 receptor, calcium mobilization
[5] = M4 receptor, calcium mobilization, read-out: M4 Efficacy
[6] = M1 receptor, calcium mobilization
[7] = M1 receptor, calcium mobilization, read-out: M1 Efficacy
[8] = Table 4, modulating M4 receptor
[9] = Table 4, modulating M1 receptor
[10] = M4-CHO cells, calcium mobilization (FLIPR)
[11] = M4-CHO cells, calcium mobilization (FLIPR), read-out: M4 Efficacy
[12] = M1-CHO cells, calcium mobilization (FLIPR)
[13] = M1-CHO cells, calcium mobilization (FLIPR), read-out: M1 Efficacy

Structure (SMILES) | Emax (M4 muscarinic receptor; [1]) [%] | Emax (M1 muscarinic receptor; [1]) [%] | M4 Activity (M4 muscarinic receptor; [8]) | M1 Activity (M1 muscarinic receptor; [9]) | other results
CC(=O)CN1CC2(CCN(C3CCCCCC3)CC2)c2cc(F)ccc21 [compound 1009] | 25 to 100 | 25 to 100 | – | – | M4 Activity (M4 muscarinic receptor; [2]): xxx (activity was measured to be less than 2.0 μM); M1 Activity (M1 muscarinic receptor; [3]): xxx (activity was measured to be less than 2.0 μM)
C#CCOC(=O)N1CCC(N2CCC3(CC2)CN(C(C)=O)c2ccc(C)cc23)CC1 [compound 81] | – | – | – | – | M4 Activity (M4 muscarinic receptor; [4]): x (activity was measured to be greater than 1.0 μM); Emax (M4 muscarinic receptor; [5]): < 65%; M1 Activity (M1 muscarinic receptor; [6]): xx (activity was measured to be between 0.1 μM and 1.0 μM); Emax (M1 muscarinic receptor; [7]): < 65%
CN(C)C(=O)N1CC2(CCN(C3CCN(c4cncnc4)CC3)CC2)c2cc(F)ccc21 [compound 528] | 25 to 100 | 25 to 100 | xxx (activity was measured to be less than 2.0 μM) | xx (activity was measured to be between 2.0 μM and 5.0 μM) | –
CN(C)C(=O)N1CC2(CCN(C3CCN(C(=O)c4ccc(F)cc4)CC3)CC2)c2cc(F)ccc21 [compound 767] | < 25 | 25 to 100 | x (activity was measured to be greater than 5.0 μM) | x (activity was measured to be greater than 5.0 μM) | –
CN(C)C(=O)N1CC2(CCN(C3CCN(C(=O)[C@@H]4CCCO4)CC3)CC2)c2cc(F)ccc21 [compound 1006] | < 25 | 25 to 100 | – | – | M4 Activity (M4 muscarinic receptor; [2]): x (activity was measured to be greater than 5.0 μM); M1 Activity (M1 muscarinic receptor; [3]): x (activity was measured to be greater than 5.0 μM)
CCC1CCC(N2CCC3(CC2)C[C@H](NC(C)=O)c2ccccc23)CC1 (stereo partly shown) [compound 367] | – | – | – | – | M4 Activity (M4 muscarinic receptor; [4]): x (activity was measured to be greater than 1.0 μM); Emax (M4 muscarinic receptor; [5]): < 65%; M1 Activity (M1 muscarinic receptor; [6]): x (activity was measured to be greater than 1.0 μM); Emax (M1 muscarinic receptor; [7]): < 65%
Cc1ccc2c(c1)/C(=N/O)CC21CCN(CC2C[C@H]3CCC2C3)CC1 (stereo partly shown) [compound 935] | 25 to 100 | 25 to 100 | – | – | M4 Activity (M4 muscarinic receptor; [2]): xxx (activity was measured to be less than 2.0 μM); M1 Activity (M1 muscarinic receptor; [3]): x (activity was measured to be greater than 5.0 μM)
CCCCOC(=O)N1CCC(N2CCC3(CC2)CN(C(C)=O)c2ccccc23)CC1 [compound 683] | < 25 | 25 to 100 | x (activity was measured to be greater than 5.0 μM) | xx (activity was measured to be between 2.0 μM and 5.0 μM) | –
CS(=O)(=O)N1CC2(CCN(C3CC4CCC(C3)N4C(=O)O[C@H]3CCOC3)CC2)c2cc(F)ccc21 (stereo partly shown) [compound 388] | – | – | – | – | EC50 (M4 muscarinic receptor; [10]): > 1000 nM; Emax (M4 muscarinic receptor; [11]): < 65%; EC50 (M1 muscarinic receptor; [12]): < 100 nM; Emax (M1 muscarinic receptor; [13]): 65 to 85%
CC(=O)N1CC2(CCN(C3CCN(C(=O)OC(C)C)C3)CC2)c2cc(F)ccc21 (stereo not shown) [compound 634] | < 25 | < 25 | x (activity was measured to be greater than 5.0 μM) | x (activity was measured to be greater than 5.0 μM) | –
O=C(O[C@H]1CCOC1)N1C2CCC1CC(N1CCC3(CC1)COc1ccc(F)cc13)C2 (stereo partly shown) [compound 212] | – | – | – | – | M4 Activity (M4 muscarinic receptor; [4]): x (activity was measured to be greater than 1.0 μM); Emax (M4 muscarinic receptor; [5]): < 65%; M1 Activity (M1 muscarinic receptor; [6]): x (activity was measured to be greater than 1.0 μM); Emax (M1 muscarinic receptor; [7]): < 65%
Cc1ccc2c(c1)C1(CCN(C3CC4CCC(C4)C3)CC1)CN2 (stereo not shown) [compound 397] | – | – | – | – | EC50 (M4 muscarinic receptor; [10]): > 1000 nM; Emax (M4 muscarinic receptor; [11]): < 65%; EC50 (M1 muscarinic receptor; [12]): 100 to 1000 nM; Emax (M1 muscarinic receptor; [13]): 65 to 85%
CC(=O)NC1CCC2(CCN(CCC3CCCN(C(=O)OCC(C)C)C3)CC2)c2ccccc21 (stereo not shown) [compound 741] | < 25 | < 25 | x (activity was measured to be greater than 5.0 μM) | x (activity was measured to be greater than 5.0 μM) | –
